Target: T1, human nicotinic alpha7 WT receptor (Homo sapiens, UniProt P36544)
T1 construct: expressed in transfected cells; host or cells: GH4C1 (rat pituitary-derived cell line), RPA clone #34.7
Assay: Nicotinic alpha 7 Modulation Assay (FLIPR)
Type: cell-based
Settings: GH4C1 cells stably expressing human nicotinic alpha7 WT receptor, ACh 30 μM, positive control 1 μM PNU-120596
Description: Nicotinic alpha 7 Modulation Assay
Cell Culture Growth Media: F10 medium (Invitrogen), 2.5% Fetal Bovine Serum (FBS, Summit Biotechnology); 15% heat inactivated donor Horse Serum (Invitrogen), 250 μg/ml Hygromycin B (Invitrogen); and 100 nM Methyllicaconite (MLA, Sigma) are added to each new culture by 50-fold dilution of stock solution prepared in H2O at 5 μM.
GH4C1 cells (rat pituitary-derived cell line) stably expressing human nicotinic alpha7 WT receptor (RPA clone #34.7) are cultivated in cell culture growth media (described above) at 37 C in a humidified atmosphere containing 4% CO2. […]
The alpha 7 nAChR assay is a cell-based functional readout designed to determine the effect of test compounds to either directly activate nicotinic receptor channels and/or to modulate activation by the native agonist acetylcholine (ACh, Sigma). […]
Assay of test compound effect on activation of the alpha7 nicotinic receptor channel is done by measurement of cytosolic [Ca^2+] elevation as reported by increased FLUO-3 fluorescence using a two addition experimental design and FLIPR™ (Molecular Devices). Following a 30 second baseline recording, test compounds are added online (dilution scheme below) and cell response is recorded for an additional 5 minutes. After a second addition of ACh (30 μM, FAC), plates are read for an additional 4 minutes. […]

T1 sequence (P36544 23-502): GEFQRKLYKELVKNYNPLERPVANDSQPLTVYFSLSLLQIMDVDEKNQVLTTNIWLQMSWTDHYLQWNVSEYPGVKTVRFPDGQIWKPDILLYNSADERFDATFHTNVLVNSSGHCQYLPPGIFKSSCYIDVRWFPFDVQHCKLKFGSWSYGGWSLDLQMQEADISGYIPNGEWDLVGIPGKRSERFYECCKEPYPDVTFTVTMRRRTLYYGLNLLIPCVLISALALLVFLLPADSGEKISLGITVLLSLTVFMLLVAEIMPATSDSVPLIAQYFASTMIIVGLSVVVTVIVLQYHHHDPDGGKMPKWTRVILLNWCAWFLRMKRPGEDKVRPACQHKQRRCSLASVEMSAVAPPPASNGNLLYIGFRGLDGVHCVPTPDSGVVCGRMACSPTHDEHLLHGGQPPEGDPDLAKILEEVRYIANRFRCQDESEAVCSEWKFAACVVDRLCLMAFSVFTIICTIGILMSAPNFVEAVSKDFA

## COc1ccccc1-c1cc(C(=O)NCCc2ccc(S(N)(=O)=O)cc2)cc(-n2cnnn2)c1 [Compound 4, 2′-Methoxy-5-tetrazol-1-yl-biphenyl-3-carboxylic acid [2-(4-sulfamoyl-phenyl)-ethyl]-amide]
  positive allosteric modulation: 467.65
